The text below walks through data of patent US20250134907A1, “FUSED DIAZEPINES AS AGONISTS OF THE INSULIN-LIKE 3 (INSL3) PEPTIDE RECEPTOR RXFP2 AND METHODS OF USE THEREOF” (The United States of America,as represented by the …, priority 2022, published 2025).

In one assay the target is T1, WT RXFP2 (Homo sapiens, UniProt Q8WXD0).
T1 construct: using full-length human RXFP1 and RXFP2 receptor constructs; FLAG; expressed in transfected cells; host or cells: HEK293T (transient, Lipofectamine2000)
Nature of the assay: HTRF cAMP assay in HEK293T cells transiently transfected with WT RXFP2. Type of assay: cell-based. The text has this: To further investigate the involvement of the RXFP2 extracellular and transmembrane domains in agonist activation of the receptor, two complementary chimeras were created using the RXFP1 receptor, which is not activated by the agonists of formula (I), to transiently transfect HEK293T cells and measured changes in cAMP induction using the HTRF assay.
Chimeric receptors were generated by IN-FUSION™ (Takara Bio USA, Inc., San Jose, CA) mutagenesis using full-length human RXFP1 and RXFP2 receptor constructs. Polymerase chain reaction (PCR) was performed using PfuTurbo high-fidelity DNA polymerase (Agilent Technologies, Santa Clara, CA) and overlapping primers with at least 15 bp sequence homology within the fusion site. PCR products were digested with Dpnl restricton enzyme at 37° C. overnight, run on a 0.8% agarose gel and purified using the GENEJET™ Gel extraction kit (Thermo Scientific, Waltham, MA). The purified DNA fragments were then ligated into the BamHI and XhoI pre-digested pcDNA3.1™/Zeo(+) AmpR mammalian expression vector using the In-Fusion HD enzyme premix (Clontech, Mountain View, CA) at 50° C. for 15 minutes, and the resulting product was used to transform Stellar competent cells (Takara Bio USA, Inc., San Jose, CA). The clones were fully sequenced to confirm the correct fusion of both receptor fragments. Chimera RXFP2-1 contained the extracellular domain of RXFP2 and the transmembrane domain of RXFP1. Accordingly, chimera RXFP1-2 contained the extracellular domain of RXFP1 and the transmembrane domain of RXFP2.
HEK293T cells were seeded in 6-well flat-bottom clear plates at 0.5 million cells/well in 2 mL/well of growth medium (DMEM, 10% FBS, 1× Pen/Strep) and allowed to attach overnight at 37° C. and 5% CO2. The next morning, cells were transfected with 2 μg of plasmid (chimeric receptors, WT RXFP2, or WT RXFP1) and 6 μl of Lipofectamine2000 (Invitrogen, Waltham, MA) in a total volume of 200 μl/well OPTI-MEM™ I (Thermo Fisher, Waltham, MA) reduced serum medium and allowed to incubate an additional 24 hours. The next day, transfected cells were seeded in 96-well flat-bottom opaque plates at 30,000 cells/well in 60 μL/well of serum-free DMEM medium and allowed to attach overnight at 37° C. at 5% CO2. The next morning, cells were treated with 1 μL/well of compound (25 μM-0.25 nM), 2 μM forskolin, or DMSO vehicle. Cells were also treated with 4 μL of positive control INSL3 (100-0.01 nM), Relaxin2 (100-10 nM), or vehicle (serum-free DMEM+IBMX). Plates were incubated for 1 hour at 37° C. and 5% CO2, after which kit cAMP-d2 and anti-cAMP antibody were added as previously described. Cells were incubated for 1 hour at room temperature, and then the signal was read on a CLARIOstar plate reader (BMG Labtech, Germany).
On the technique in general: In TR-FRET formats the signal depends on donor and acceptor labels being close together.

The target of the next assay is T2, RXFP2 (Homo sapiens, UniProt Q8WXD0).
T2 construct: expressed in transfected cells
The experiment in a line: HTRF cAMP assay in HEK-RXFP2 cells with INSL3 B dimer antagonist co-treatment. It is filed as cell-based. To be noted: antagonist 10 μM-[…], IBMX 200 μM. The method, then: Previous publications have characterized the INSL3/RXFP2 binding model, showing that the B-chain of INSL3 binds with high affinity to the extracellular leucine-rich repeat (LRR) domain of RXFP2. To determine if the RXFP2 agonists interact with the receptor in a similar manner, an INSL3 antagonist (INSL3 B dimer) was used to co-treat HEK-RXFP2 cells with RXFP2 agonists or INSL3 and measure induction of cAMP using the HTRF assay. […] The HTRF cAMP assay was carried out in the presence of 200 μM IBMX to amplify the cAMP signal. For this assay, cells were seeded in 96-well flat-bottom opaque plates at 7,500 cells/well in 60 μL/well of serum-free DMEM medium and allowed to attach overnight at 37° C. and 5% CO2. The next morning, cells were treated with 2 μL of INSL3 B dimer antagonist (10 μM-0.21 nM) and 2 μL of 30 nM INSL3 or 4 μL of vehicle (serum-free DMEM+IBMX). Cells were also treated with 1 μL/well of 0.28 μM compound, 2 μM forskolin, or DMSO vehicle. Cells were incubated for 1 hour at 37° C., 5% CO2, after which kit cAMP-d2 and anti-cAMP antibody were added as previously described. Plates were incubated for 1 hour at room temperature, and then the signal was read on a CLARIOstar plate reader (BMG Labtech, Germany).

In general, Emax refers to the greatest response seen or fitted, relative to the assay's reference. As a reminder, the EC50 is the concentration that produces a half-maximal response.

T1 sequence (Q8WXD0 whole entry): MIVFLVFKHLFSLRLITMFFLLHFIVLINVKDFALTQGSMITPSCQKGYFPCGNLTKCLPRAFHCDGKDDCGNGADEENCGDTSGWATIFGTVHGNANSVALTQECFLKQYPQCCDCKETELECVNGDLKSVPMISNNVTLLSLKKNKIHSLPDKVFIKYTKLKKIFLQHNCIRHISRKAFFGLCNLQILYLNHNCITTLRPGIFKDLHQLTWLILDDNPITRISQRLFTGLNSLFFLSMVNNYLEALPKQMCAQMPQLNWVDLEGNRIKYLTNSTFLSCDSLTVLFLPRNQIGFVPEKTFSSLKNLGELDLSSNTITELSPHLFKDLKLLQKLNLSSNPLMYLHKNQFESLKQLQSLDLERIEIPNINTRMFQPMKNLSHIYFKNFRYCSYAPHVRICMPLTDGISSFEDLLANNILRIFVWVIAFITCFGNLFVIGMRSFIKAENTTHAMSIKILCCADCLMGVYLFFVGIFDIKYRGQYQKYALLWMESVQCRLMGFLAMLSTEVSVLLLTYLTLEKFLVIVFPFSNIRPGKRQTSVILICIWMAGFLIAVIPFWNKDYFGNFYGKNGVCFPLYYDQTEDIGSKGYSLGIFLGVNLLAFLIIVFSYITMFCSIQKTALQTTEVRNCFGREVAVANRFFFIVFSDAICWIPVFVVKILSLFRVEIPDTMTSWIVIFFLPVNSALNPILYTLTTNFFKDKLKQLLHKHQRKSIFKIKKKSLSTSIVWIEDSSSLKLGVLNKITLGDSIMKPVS
T2 sequence (Q8WXD0 whole entry): as above

With `O=C1Nc2ccc(-c3cc(C(F)(F)F)cc(C(F)(F)F)c3)cc2C(=O)N2CCN(C(=O)COc3ccc(OC(F)(F)F)cc3I)C[C@@H]12` [Example 187, (S)-8-(3,5-bis(trifluoromethyl)phenyl)-2-(2-(2-iodo-4-(trifluoromethoxy)phenoxy)acetyl)-1,3,4,12a-tetrahydrobenzo[e]pyrazino[1,2-a][1,4]diazepine-6,12 (2H, 11H)-dione], the Emax on WT RXFP2 (HEK-293T, normalized to 2 μM forskolin cAMP response as 100% activity) was determined as 86.3 ± 3.38%. The EC50 on WT RXFP2 (read-out: EC50 (μM or nM)) came out at 0.012 ± 0.008 µM. Besides, the “effect of INSL3 B dimer antagonist on cAMP response induced by the compound” value on RXFP2 was “no effect”.
